Measured values from patent publication US5922680A, “Stabilized composition for oral administration of peptides” (Ferring, B.V., priority 1997, dated 1999).

Conditions: pH 6.5
Protocol: Human gastro-intestinal juice was obtained from healthy male volunteers who had been fasting for 8 h. A tube was introduced intranasally after local anaesthesia with xylocaine, and gastric juice was collected. Thereafter one standardized meal was given 1 h before sampling of duodenal and distal jejunum juice and another the next morning before the collection of distal ileal juice. After centrifugation the gastric and intestinal juices were frozen in aliquots of 1 ml and stored at -20° C. […] The peptide or peptide analog (10 μl of 10 mM peptide in 0.9% aqueous NaCl) was added to 190 μl of undiluted juice at 37° C. Aliquots of 25 μl were withdrawn at intervals and mixed with 100 μl acetone to stop the reaction. After centrifugation for 10 min at 10,000 g, 10 μl of the supernatant was analyzed by reversed phase HPLC. […] Analysis was carried out in a Varian 5000 HPLC analyzer equipped with a UV-detector (220 nm). Column Bondapak TM C18 (3.9×300 mm), eluant MeOH/0.025 M NH4 Ac (isocratic conditions), flow rate 1 ml/min. […] Protein: Bio-Rad protein assay. pH: Orion model SA720; pH-paper Merck (Darmstadt), range 4.0-7.0.

Compound: NC(=O)CC[C@@H]1NC(=O)[C@H](Cc2ccccc2)NC(=O)[C@H](Cc2ccc(O)cc2)NC(=O)CCSSC[C@@H](C(=O)N2CCC[C@H]2C(=O)N[C@H](CCCN=C(N)N)C(=O)NCC(N)=O)NC(=O)[C@H](CC(N)=O)NC1=O [DDAVP, Mpa-Tyr-Phe-Gln-Asn-Cys-Pro-D-Arg-Gly-GlyNH2]
- DDAVP degraded (to about 50%): about 50%
